Data as given in PubChem BioAssay (NCI).
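96-well plates; 48 h exposure; 5 concentrations. Endpoints by linear interpolation between flanking doses. Not reached: highest tested concentration assigned. GI50: concentration for 50% inhibition of growth. At the TGI there is no net growth.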

How the values were obtained:
Experiment in all cases: NCI tumour cell line growth inhibition, 48 h
COLO 205 colon = tested on: COLO 205 colon
HOP-92 NSCLC = tested on: HOP-92 NSCLC
MDA-N = tested on: MDA-N
NCI/ADR-RES ovarian = tested on: NCI/ADR-RES ovarian
RPMI-8226 leukemia = tested on: RPMI-8226 leukemia
SK-MEL-5 melanoma = tested on: SK-MEL-5 melanoma
SNB-19 CNS = tested on: SNB-19 CNS
UO-31 renal = tested on: UO-31 renal
MALME-3M melanoma = tested on: MALME-3M melanoma
DLD-1 colon = tested on: DLD-1 colon
DMS 273 small cell lung = tested on: DMS 273 small cell lung
XF 498 CNS = tested on: XF 498 CNS

| SMILES | TGI (COLO 205 colon) | TGI (HOP-92 NSCLC) | TGI (MDA-N) | TGI (NCI/ADR-RES ovarian) | TGI (RPMI-8226 leukemia) | TGI (SK-MEL-5 melanoma) | TGI (SNB-19 CNS) | TGI (UO-31 renal) | GI50 (COLO 205 colon) | GI50 (HOP-92 NSCLC) | GI50 (MALME-3M melanoma) | TGI (MALME-3M melanoma) | GI50 (NCI/ADR-RES ovarian) | GI50 (SK-MEL-5 melanoma) | GI50 (SNB-19 CNS) | GI50 (UO-31 renal) | TGI (DLD-1 colon) | TGI (DMS 273 small cell lung) | GI50 (RPMI-8226 leukemia) | TGI (XF 498 CNS) |
| --- | --- | --- | --- | --- | --- | --- | --- | --- | --- | --- | --- | --- | --- | --- | --- | --- | --- | --- | --- | --- |
| CC[C@@H]1ON(C)[C@H]2CN(C)C(=O)[C@@H]12 | > 100 µM | > 100 µM | > 100 µM | > 100 µM | > 100 µM | > 100 µM | > 100 µM | > 100 µM |  |  |  |  |  |  |  |  |  |  |  |  |
| c1ccc(N2N=C(c3cccc(Nc4ccncc4)c3)CC2c2ccc3c(c2)OCO3)cc1 (stereo unspecified) | 3.84 µM | 2.47 µM |  | 3.6 µM |  | 3.17 µM | 6.67 µM | 2.84 µM | 1.8 µM | 1.1 µM | 1.57 µM | 3.06 µM | 1.66 µM | 1.77 µM | 2.2 µM | 1.4 µM |  |  |  |  |
| C=C(C)C(=O)O[C@H]1CC2=C[C@@H](C[C@@]3(C)O[C@@H]3[C@H]3OC(=O)C(=C)[C@@H]31)OC2=O | 3.4 µM | 2.78 µM |  | 5.18 µM | 26.3 µM | 8.22 µM | 49.1 µM | 13.8 µM |  |  |  | 5.62 µM |  |  |  |  | 3.3 µM | 8.09 µM | 0.915 µM |  |
| COc1ccc2c(c1O)-c1cc(O)cc3c1[C@@H](C2)N(C)CC3 | 106 µM | 73.6 µM |  | 227 µM | 286 µM | 122 µM | 378 µM | 103 µM |  |  |  | 126 µM |  |  |  |  | 121 µM | 127 µM |  | 160 µM |
| COc1cc(C2S/C(=C/c3ccccc3)C(=O)N2c2ccc(NC(C)=O)cc2)cc(OC)c1OC (stereo unspecified) | 30.3 µM | 83.6 µM | 63.4 µM | 76.2 µM |  | 34.9 µM | > 100 µM | > 100 µM |  |  |  | 55.6 µM |  |  |  |  |  |  |  |  |
| COc1nc2ccc(COc3ccc(C(=O)NC(CCC(=O)O)C(=O)O)cc3)cc2nc1OC (stereo unspecified) | > 10 µM | > 10 µM | > 10 µM |  | > 10 µM | > 10 µM | > 10 µM | > 10 µM |  |  |  |  |  |  |  |  |  |  |  |  |
| NC(=S)N/N=C/c1nccc2ccccc12 | > 100 µM | > 100 µM |  |  | > 100 µM | > 100 µM | 32.7 µM | 3.42 µM |  |  |  | 0.476 µM |  |  |  |  | > 100 µM | 12.9 µM |  |  |
| Cc1nc2c(c(=O)[nH]1)S/C(=C(/C#N)c1nc3ccccc3[nH]1)N2c1ccccc1 | > 100 µM | > 100 µM |  |  | > 100 µM | > 100 µM | > 100 µM | > 100 µM |  |  |  | > 100 µM |  |  |  |  | > 100 µM | > 100 µM |  | > 100 µM |
| O=C1C(Cl)N(c2cccc(Cl)c2)C1c1c[nH]c2ccccc12 (stereo unspecified) | > 100 µM | > 100 µM |  |  | > 100 µM | > 100 µM | > 100 µM | > 100 µM |  |  |  | > 100 µM |  |  |  |  |  |  |  | > 100 µM |
